These are literature values, as cited in patent US20180271836A1, “TOPICAL NON-AQUEOUS PHARMACEUTICAL FORMULATIONS CONTAINING AN ALKYL SULFOXIDE FOR THE TREATMENT OF TOPICAL REFERENCE INFECTIONS” (priority 2012, published 2018).

As a reminder, the pKa is the pH at which an ionisable group is half protonated. `Clc1ccc(COC(Cn2ccnc2)c2ccc(Cl)cc2Cl)c(Cl)c1` (stereo not shown) [miconazole]: the pKa is listed as 6.5.
